Results published in patent US6225321A (priority 1997, dated 2001).
Values joined by “and” are separate entries in the source; they are usually repeats but may differ in a detail not shown here. Equal entries are not always repeated. Structures can show the parent of a compound that is named as a salt.

What was measured:
human = details: Shafer et al. 1991; cited from earlier work
[1] = cited from earlier work
Sprague Dawley rats = assay: Analgesic effect, cold ethanol bath tail flick test, intramuscular, rats; type: in vivo, rat; details: FIG. 6, rats, 25 micromole/kg intramuscular; for analgesic duration of Nalbuphine free base compared with the preparation of this ester: the shorter one is Nalbuphine free base
Protocol: Sprague Dawley rats(175 to 225 g) were used. Each group consisted of 6 rats and each rats was injected once intramuscularly on the rear leg. […]
The dose for each rat was 25 micromole per kg, intramuscularly.
In the experiment, a circulating cold ethanol bath with a temperature maintained at -20° C. was set up. After dosing, the rat tail(1/3 from the tip) was immersed in the bath. The latency for the rat to flick its tail from the bath was measured to be the nociceptive threshold. The effect of various opium alkaloid preparations can be determined with this test.
The nociceptive effect can be calculated as follows: [formula]
35, 25, 15 minutes before dosing, Male Sprague Dawley rat(175-225 g) was tested to measure the basic response latency. The time to top the experiment was set at 40 seconds to prevent the tail from cold sore. No cold sore were found in 40 sec. Five minutes after the drug was given to the rat, the flick test was performed every 10 minutes or more. […]
(c) Dinalbuphine sebacoyl ester, dose was 7.8125 μ/kg, 31.25 μM/kg, 125 μM/kg.
(d) 50 mg/ml dinalbuphine sebacoyl ester parenteral dosage forms, dinalbuphine sebacoyl ester was prepared in sesame oil.

[2] = between 17 and 28 hours; p<0.05
guinea pigs = assay: Analgesic effect, intramuscular, guinea pigs; type: in vivo, guinea pig; details: hydrochloride
Protocol: Six male Sprague Dawley rats (175 to 225 g), and six male guinea pigs (200 to 250 g) were used.
Dose for guinea pig was 500 μ/kg, 250 μM/kg.

[3] = comparison value for Nalbuphine hydrochloride, source not stated; cited from earlier work

For `Oc1ccc2c(c1)[C@@]13CCCC[C@@]1(O)[C@@H](C2)N(CC1CCC1)CC3` [Butorphanol], which “dose needed to elicit the same analgesic effect” value (human) is on record?
Its value is 2 mg.

Which “dosing frequency to which effect was extended” value ([1]; intramuscular, Gelders 1986) does the source give for `CCCCCCCCCC(=O)OC1(c2ccc(Cl)cc2)CCN(CCCC(=O)c2ccc(F)cc2)CC1` [Haloperidol decanoate] here?
Its value is 1 to 2 times a month.

Which “dose needed to elicit the same analgesic effect” value (human) does the source give for `CN1CC[C@]23c4c5ccc(O)c4O[C@H]2[C@@H](O)C=C[C@H]3[C@H]1C5` [Morphine] here?
Its value is 10 mg.

Which “analgesic duration of Nalbuphine free base compared with the preparation of this ester” value (Sprague Dawley rats) does the source give for `O=C(Oc1ccc2c3c1O[C@H]1[C@@H](O)CC[C@@]4(O)[C@@H](C2)N(CC2CCC2)CC[C@]314)c1ccccc1` [Nalbuphine benzoate] here?
Its value is “significantly shorter”.

Which “analgesic duration of Nalbuphine free base compared with the preparation of this ester” value (Sprague Dawley rats) does the source give for `CCCCCCCCCC(=O)Oc1ccc2c3c1O[C@H]1[C@@H](O)CC[C@@]4(O)[C@@H](C2)N(CC2CCC2)CC[C@]314` [Nalbuphine decanoate] here?
The value was “significantly shorter”.

Which “analgesic duration of Nalbuphine free base compared with the preparation of this ester” value (Sprague Dawley rats) does the source give for `CCCCCCC(=O)Oc1ccc2c3c1O[C@H]1[C@@H](O)CC[C@@]4(O)[C@@H](C2)N(CC2CCC2)CC[C@]314` [Nalbuphine enanthate] here?
The value was “significantly shorter”.

Which results are given for `Oc1ccc2c3c1O[C@H]1[C@@H](O)CC[C@@]4(O)[C@@H](C2)N(CC2CCC2)CC[C@]314` [Nalbuphine free base, reference compound]?
amount of released Nalbuphine free base [2]: less in the preparation with sesame oil than with peanut oil ester and the control; analgesic duration compared with preparations of Nalbuphine monomer ester (Sprague Dawley rats): significantly shorter

For `Oc1ccc2c3c1O[C@H]1[C@@H](O)CC[C@@]4(O)[C@@H](C2)N(CC2CCC2)CC[C@]314` [Nalbuphine hydrochloride], which “dose at which significant analgesic effect was found” value (guinea pigs) is on record?
Its value is 500 µM/kg and 250 µM/kg.

And the “half life for excretion” value [3]?
Its value is “about 1 hour”.

With `CC(C)(C)C(=O)Oc1ccc2c3c1O[C@H]1[C@@H](O)CC[C@@]4(O)[C@@H](C2)N(CC2CCC2)CC[C@]314` [Nalbuphine pivalate] as the compound, how does the “analgesic duration of Nalbuphine free base compared with the preparation of this ester” value (Sprague Dawley rats) read?
The value was “significantly shorter”.

Which “analgesic duration of Nalbuphine free base compared with the preparation of this ester” value (Sprague Dawley rats) does the source give for `CCC(=O)Oc1ccc2c3c1O[C@H]1[C@@H](O)CC[C@@]4(O)[C@@H](C2)N(CC2CCC2)CC[C@]314` [Nalbuphine propionate] here?
Its value is “significantly shorter”.

Which “dosing interval can be set longer to” value ([1]; Joshi et al. 1989) does the source give for `C#C[C@]1(OC(=O)CCCCCC)CC[C@H]2[C@@H]3CCC4=CC(=O)CC[C@@H]4[C@H]3CC[C@@]21C` [Northisterone enanthate] here?
The value was “two months”.

Which drug release ([1]; suspension) does the source give for `C[C@]12CC[C@H]3[C@@H](CCC4=CC(=O)CC[C@@]43C)[C@@H]1CC[C@@H]2O` [Testosterone] here?
Its drug release is “released quickly”.
